Test results as given in patent US20210308089A1, “METHODS OF TREATING AND/OR PREVENTING VIRAL INFECTIONS AND/OR DISEASES CAUSED BY VIRUSES IN A SUBJECT IN NEED THEREOF” (priority 2020, published 2021).
Where two headings read alike, the source gives them in different places.

Tested on: patients of the REDUCE-IT and earlier EPA placebo-controlled trials
Assay type: in vivo, human
Conditions: for Placebo-Adjusted % Change / ARR / NNT / Risk Ratio (95% CI): R-I
[1] = Hematocrit shift: normal to high (Day 120)
[2] = Hematocrit shift: normal to high (Day 360)
[3] = Hematocrit shift: normal to high (Day 720)
[4] = Hematocrit shift: normal to high (Day 1080)
[5] = Hematocrit shift: normal to high (Day 1440)
[6] = Hematocrit shift: normal to high (Day 1800)
[7] = Hematocrit shift: normal to low (Day 120)
[8] = Hematocrit shift: normal to low (Day 360)
[9] = Hematocrit shift: normal to low (Day 720)
[10] = Hematocrit shift: normal to low (Day 1080)
[11] = Hematocrit shift: normal to low (Day 1440)
[12] = Hematocrit shift: normal to low (Day 1800)
[13] = Hemoglobin shift: normal to high (Day 120)
[14] = Hemoglobin shift: normal to high (Day 360)
[15] = Hemoglobin shift: normal to high (Day 720)
[16] = Hemoglobin shift: normal to high (Day 1080)
[17] = Hemoglobin shift: normal to high (Day 1440)
[18] = Hemoglobin shift: normal to high (Day 1800)
[19] = Hemoglobin shift: normal to low (Day 120)
[20] = Hemoglobin shift: normal to low (Day 360)
[21] = Hemoglobin shift: normal to low (Day 720)
[22] = Hemoglobin shift: normal to low (Day 1080)
[23] = Hemoglobin shift: normal to low (Day 1440)
[24] = Hemoglobin shift: normal to low (Day 1800)

CC/C=C\C/C=C\C/C=C\C/C=C\C/C=C\CCCC(=O)OCC [icosapent ethyl, eicosapentaenoic acid ethyl ester]
Placebo-Adjusted % Change (Hematocrit (Day 360)): +.78%
Placebo-Adjusted % Change (Hematocrit (Day 720)): +1.28%
Placebo-Adjusted % Change (Hematocrit (Day 1080)): +1.59%
Placebo-Adjusted % Change (Hematocrit (Day 1440)): +1.86%
ARR [1]: 0.4%
NNT [1]: −234
Risk Ratio (95% CI) [1]: 1.507 (0.952 to 2.386) −2
ARR [2]: 0.3%
NNT [2]: −364
Risk Ratio (95% CI) [2]: 1.273 (0.811 to 1.999) −2
ARR [3]: 0.2%
NNT [3]: −566
Risk Ratio (95% CI) [3]: 1.181 (0.724 to 1.927) −1
ARR [4]: 0.4%
NNT [4]: −282
Risk Ratio (95% CI) [4]: 1.433 (0.826 to 2.487) −2
ARR [5]: 0.7%
NNT [5]: −138
Risk Ratio (95% CI) [5]: 2.208 (1.155 to 4.221) −3
ARR [6]: 0.3%
NNT [6]: −354
Risk Ratio (95% CI) [6]: 1.420 (0.582 to 3.462) −2
ARR [7]: −0.4%
NNT [7]: 228
Risk Ratio (95% CI) [7]: 0.828 (0.612 to 1.120) 1
ARR [8]: −0.6%
NNT [8]: 158
Risk Ratio (95% CI) [8]: 0.784 (0.583 to 1.054) 2
ARR [9]: −1.1%
NNT [9]: 90
Risk Ratio (95% CI) [9]: 0.747 (0.579 to 0.964) 2
ARR [10]: −2.2%
NNT [10]: 45
Risk Ratio (95% CI) [10]: 0.607 (0.469 to 0.785) 2
ARR [11]: −2.1%
NNT [11]: 47
Risk Ratio (95% CI) [11]: 0.650 (0.500 to 0.845) 2
ARR [12]: −0.9%
NNT [12]: 111
Risk Ratio (95% CI) [12]: 0.859 (0.627 to 1.179) 1
Placebo-Adjusted % Change (Hemoglobin (Day 120)): +.53%
Placebo-Adjusted % Change (Hemoglobin (Day 360)): +1%
Placebo-Adjusted % Change (Hemoglobin (Day 720)): +1.51%
Placebo-Adjusted % Change (Hemoglobin (Day 1080)): +2.09%
Placebo-Adjusted % Change (Hemoglobin (Day 1440)): +2.36%
ARR [13]: 0.3%
NNT [13]: −313
Risk Ratio (95% CI) [13]: 1.668 (0.915 to 3.042) −2
ARR [14]: −0.1%
NNT [14]: 961
Risk Ratio (95% CI) [14]: 0.908 (0.571 to 1.442) 1
ARR [15]: 0.2%
NNT [15]: −491
Risk Ratio (95% CI) [15]: 1.144 (0.760 to 1.721) −1
ARR [16]: 1.0%
NNT [16]: −103
Risk Ratio (95% CI) [16]: 2.241 (1.330 to 3.778) −3
ARR [17]: 0.7%
NNT [17]: −145
Risk Ratio (95% CI) [17]: 1.829 (1.036 to 3.229) −3
ARR [18]: 0.4%
NNT [18]: −240
Risk Ratio (95% CI) [18]: 1.383 (0.686 to 2.788) −2
ARR [19]: 0.0%
NNT [19]: −2370
Risk Ratio (95% CI) [19]: 1.013 (0.787 to 1.303) −1
ARR [20]: −0.7%
NNT [20]: 134
Risk Ratio (95% CI) [20]: 0.828 (0.652 to 1.051) 1
ARR [21]: −1.1%
NNT [21]: 93
Risk Ratio (95% CI) [21]: 0.815 (0.657 to 1.011) 1
ARR [22]: −2.3%
NNT [22]: 44
Risk Ratio (95% CI) [22]: 0.703 (0.570 to 0.868) 2
ARR [23]: −2.7%
NNT [23]: 37
Risk Ratio (95% CI) [23]: 0.685 (0.553 to 0.849) 2
ARR [24]: −1.5%
NNT [24]: 67
Risk Ratio (95% CI) [24]: 0.827 (0.630 to 1.085) 1
ARR (Lymphocytes: PCS High >45%): 2.7%
NNT (Lymphocytes: PCS High >45%): −38
Risk Ratio (95% CI) (Lymphocytes: PCS High >45%): 1.543 (1.296 to 1.838) −2
ARR (Lymphocytes: PCS Low <30%): −6.3%
NNT (Lymphocytes: PCS Low <30%): 16
Risk Ratio (95% CI) (Lymphocytes: PCS Low <30%): 0.924 (0.904 to 0.945) 1
Placebo-Adjusted % Change (Neutrophils (Day 120)): +1.11%
Placebo-Adjusted % Change (Neutrophils (Day 360)): −3%
Placebo-Adjusted % Change (Neutrophils (Day 720)): −4.7%
Placebo-Adjusted % Change (Neutrophils (Day 1080)): −4.52%
Placebo-Adjusted % Change (Neutrophils (Day 1440)): −3.06%
Placebo-Adjusted % Change (Neutrophils/Leukocytes (Ratio) (Day 120)): −2.06%
Placebo-Adjusted % Change (Neutrophils/Leukocytes (Ratio) (Day 360)): −3.87%
Placebo-Adjusted % Change (Neutrophils/Leukocytes (Ratio) (Day 720)): −4.61%
Placebo-Adjusted % Change (Neutrophils/Leukocytes (Ratio) (Day 1080)): −4.21%
Placebo-Adjusted % Change (Neutrophils/Leukocytes (Ratio) (Day 1440)): −4.1%
AR: ALP >2x ULN (AE table) (human, in vivo): 0.6%
AR: ALP > ULN (AE table) (human, in vivo): 9.8%
AR: Blood uric acid increased (AE table) (human, in vivo): 1.0%
AR: Gout (AE table) (human, in vivo): 3.6%
AR: Hepatomegaly (AE table) (human, in vivo): 0.4%
AR: Hyperuricemia (AE table) (human, in vivo): 0.6%
AR: Spleen disorders (AE table) (human, in vivo): 0.3%
AR: Splenomegaly (AE table) (human, in vivo): 0.2%
ARR: ALP >2x ULN (AE table) (human, in vivo): −0.3%
ARR: ALP > ULN (AE table) (human, in vivo): −4.5%
ARR: Blood uric acid increased (AE table) (human, in vivo): 0.1%
ARR: Gout (AE table) (human, in vivo): 1.1%
ARR: Hepatomegaly (AE table) (human, in vivo): −0.4%
ARR: Hyperuricemia (AE table) (human, in vivo): 0.3%
ARR: Spleen disorders (AE table) (human, in vivo): −0.3%
ARR: Splenomegaly (AE table) (human, in vivo): −0.1%
Lab Reported Events: % of subjects (human, in vivo): (79.9) %
Lab Reported Events: number of subjects (human, in vivo): 3269
NNT: ALP >2x ULN (AE table) (human, in vivo): 341
NNT: ALP > ULN (AE table) (human, in vivo): 22
NNT: Blood uric acid increased (AE table) (human, in vivo): −680
NNT: Gout (AE table) (human, in vivo): −93
NNT: Hepatomegaly (AE table) (human, in vivo): 256
NNT: Hyperuricemia (AE table) (human, in vivo): −292
NNT: Spleen disorders (AE table) (human, in vivo): 372
NNT: Splenomegaly (AE table) (human, in vivo): 682
Platelet Count: PCS High >500 × 10^3/uL (human, in vivo): 16 (0.4%) n(%)
Platelet Count: PCS High >500 × 10^3/uL: % of subjects (human, in vivo): (0.4) %
Platelet Count: PCS High >500 × 10^3/uL: number of subjects (human, in vivo): 16
Platelet Count: PCS Low <100 × 10^3/uL (human, in vivo): 19 (0.5%) n(%)
Platelet Count: PCS Low <100 × 10^3/uL: % of subjects (human, in vivo): (0.5) %
Platelet Count: PCS Low <100 × 10^3/uL: number of subjects (human, in vivo): 19
Risk Ratio (95% CI): ALP >2x ULN (AE table) (human, in vivo): 0.600 (0.335 to 1.075) 2
Risk Ratio (95% CI): ALP > ULN (AE table) (human, in vivo): 0.624 (0.545 to 0.714) 2
Risk Ratio (95% CI): Blood uric acid increased (AE table) (human, in vivo): 1.154 (0.753 to 1.768) −1
Risk Ratio (95% CI): Gout (AE table) (human, in vivo): 1.347 (1.075 to 1.687) −2
Risk Ratio (95% CI): Hepatomegaly (AE table) (human, in vivo): 0.304 (0.131 to 0.709) 4
Risk Ratio (95% CI): Hyperuricemia (AE table) (human, in vivo): 1.737 (0.990 to 3.050) −3
Risk Ratio (95% CI): Spleen disorders (AE table) (human, in vivo): 0.353 (0.139 to 0.894) 4
Risk Ratio (95% CI): Splenomegaly (AE table) (human, in vivo): 0.400 (0.126 to 1.275) 3
WBC Differential (Lymphocytes): PCS High >45%: % of subjects (human, in vivo): (7.4) %
WBC Differential (Lymphocytes): PCS High >45%: number of subjects (human, in vivo): 301
WBC Differential (Lymphocytes): PCS Low <30%: % of subjects (human, in vivo): (75.0) %
WBC Differential (Lymphocytes): PCS Low <30%: number of subjects (human, in vivo): 3067
WBC Differential (Monocytes): PCS High >6% (human, in vivo): 3101 (78.0%) n(%)
